Converted amounts (≈) assume the structure as drawn. The source made the active and inactive calls. The calls are words filed in the database; no cut-off is given here.
Experiments:
Assay type in all cases: functional
Staphylococcus aureus = assay: Antibacterial activity against Staphylococcus aureus by Muller Hilton broth method
Bacillus subtilis = assay: Antibacterial activity against Bacillus subtilis by Muller Hilton broth method
Escherichia coli = assay: Antibacterial activity against Escherichia coli by Muller Hilton broth method
Candida albicans = assay: Antifungal activity against Candida albicans by Muller Hilton broth method

| SMILES | MIC (Staphylococcus aureus) [µg/mL] | MIC (Bacillus subtilis) [µg/mL] | MIC (Escherichia coli) [µg/mL] | MIC (Candida albicans) [µg/mL] | Activity (Candida albicans) | Activity (Staphylococcus aureus) | Activity (Escherichia coli) |
| --- | --- | --- | --- | --- | --- | --- | --- |
| COc1cc(CCCOC=O)cc2cc(-c3ccc4c(c3)OCO4)oc12 | 400 (≈ 1130 µM) | 400 (≈ 1130 µM) | 400 (≈ 1130 µM) | 400 (≈ 1130 µM) |  |  |  |
| COc1cc(CCCOC(=O)c2ccccc2)cc2cc(-c3ccc4c(c3)OCO4)oc12 | 800 (≈ 1860 µM) | 800 (≈ 1860 µM) | 800 (≈ 1860 µM) | 800 (≈ 1860 µM) |  |  |  |
| COc1cc(CCCC#N)cc2cc(-c3ccc4c(c3)OCO4)oc12 | 800 (≈ 2390 µM) | 800 (≈ 2390 µM) | 800 (≈ 2390 µM) |  | inactive |  |  |
| COc1cc(CCCO)cc2cc(-c3ccc4c(c3)OCO4)oc12 [EGONOL] | 800 (≈ 2450 µM) | 800 (≈ 2450 µM) | 800 (≈ 2450 µM) | 800 (≈ 2450 µM) |  |  |  |
| COc1cc(CCCCl)cc2cc(-c3ccc4c(c3)OCO4)oc12 | 256 (≈ 742 µM) | 128 (≈ 371 µM) | 256 (≈ 742 µM) | 64 (≈ 186 µM) |  |  |  |
| COc1cc(CCCOCCCBr)cc2cc(-c3ccc4c(c3)OCO4)oc12 | 256 (≈ 572 µM) | 256 (≈ 572 µM) | 800 (≈ 1790 µM) | 800 (≈ 1790 µM) |  |  |  |

The remaining compounds from weak to strong by MIC (Bacillus subtilis), led by results:

| MIC (Staphylococcus aureus) [µg/mL] | MIC (Bacillus subtilis) [µg/mL] | MIC (Escherichia coli) [µg/mL] | MIC (Candida albicans) [µg/mL] | SMILES | Activity (Candida albicans) | Activity (Staphylococcus aureus) | Activity (Escherichia coli) |
| --- | --- | --- | --- | --- | --- | --- | --- |
| 800 (≈ 1970 µM) | 800 (≈ 1970 µM) | 800 (≈ 1970 µM) | 800 (≈ 1970 µM) | COc1c(Br)c(CCCO)cc2cc(-c3ccc4c(c3)OCO4)oc12 |  |  |  |
| 800 (≈ 1830 µM) | 800 (≈ 1830 µM) | 800 (≈ 1830 µM) | 800 (≈ 1830 µM) | COc1cc(CCCI)cc2cc(-c3ccc4c(c3)OCO4)oc12 |  |  |  |
|  | 800 (≈ 2150 µM) |  | 800 (≈ 2150 µM) | COc1cc(CCCO)cc2c([N+](=O)[O-])c(-c3ccc4c(c3)OCO4)oc12 |  | inactive | inactive |
| 800 (≈ 2060 µM) | 400 (≈ 1030 µM) | 800 (≈ 2060 µM) | 400 (≈ 1030 µM) | COc1cc(CCCBr)cc2cc(-c3ccc4c(c3)OCO4)oc12 |  |  |  |
| 64 (≈ 197 µM) | 256 (≈ 789 µM) | 800 (≈ 2470 µM) | 128 (≈ 395 µM) | COc1cc(CCC=O)cc2cc(-c3ccc4c(c3)OCO4)oc12 |  |  |  |

— ChEMBL document CHEMBL1149870, “Synthesis and antibacterial activity of egonol derivatives” (2008)
